Source: US11248016B2, “Glycolipids and pharmaceutical compositions thereof for use in therapy” (THE UNIVERSITY OF NOTTINGHAM, priority 2014, dated 2022)
“Also recorded” adds a separate entry of the source.

Experiments:
[1] = test system: Neuroblastoma cells (SH-SY5Y); test: Polysome profiling (sucrose density); assay type: cell-based, human
Method: Established techniques such as polysome profiling were used to show a reduction in the number of polyribosomes in neuroblastoma cells after treatment with a compound of Formula II. Polysome peaks from left to right show increasing number of ribosomes associated with mRNA. This peaks at 3 ribosomes after treatment with a compound of Formula II showing rapid and reproducible perturbation of translation. Cells were treated for 20 minutes with a compound of Formula II then harvested and prepared as described in materials and methods. The supernatants were loaded onto 10-50% sucrose gradients and spun for 2 hrs at 38,000 RPM. Gradients were visualised using a UV detector.
The number of ribosomes is indicative of the translation of an mRNA and synthesis of the protein encoded by the mRNA, and treatment with the compound of Formula II decreases the number of ribosomes per message thereby reducing global protein synthesis.
Polysome profiles were obtained using sucrose density centrifugation. Briefly one 15 cm plate of cultured Neuroblastoma cells (SH-SY5Y) were grown per treatment to a confluency of 70%. Cells were then treated with either active or equivalent DMSO vehicle control for 20 min. […] Gradients were fractionated and polysome profiles determined through a continuous monitoring at absorbance 260 nm (described previously Johannes et al. 1999).

[2] = test system: amyloid precursor protein APP 5′UTR luciferase reporter; test: 5′UTR firefly luciferase reporter assay, APP; assay type: cell-based, human
Method: SH-SY5Y cells were simultaneously co-transfected with APP-5′UTR firefly luciferase construct and a Renilla control vector. Luciferase levels were assayed using a Glomax Luminometer and Stop-n-Glo luciferase reagents (standard procedure throughout). The data presented represents 8 biological repetitions and use as the active a semi refined compound of Formula II. Levels of compound were estimated based on amounts of purified compound obtained from fresh tomato tissue.
The 5′UTRs of genes which negatively associate with the progression of Alzheimer's disease—amyloid precursor protein (APP) and beta secretases (BACE) are all inhibited by treatment with a compound of Formula II, whereas the equivalent reporter levels of housekeeping genes actin and thioredoxin (TXN) are not inhibited. […] Neuroblastoma cells were transfected 24 hours prior to treatment with a compound of Formula II. After treatment, cells were prepared as described in the materials and methods. Each experiment represents between 6 and 8 biological repetitions. […]
(§1) Cells were transfected using FuGene 6 (Roche) following the manufacturer's instructions. The activities of firefly and renilla luciferase in lysates prepared from transfected cells were measured using a commercially available Luciferase reporter assay system (Promega) and light emission was measured over a 10 sec interval using a TECAN luminometer. […]

actin 5′UTR = test: 5′UTR firefly luciferase reporter assay, actin; assay type: cell-based, human; conditions: Neuroblastoma cells; FIG. 3d
Method: (§2) The 5′UTRs of genes which negatively associate with the progression of Alzheimer's disease—amyloid precursor protein (APP) and beta secretases (BACE) are all inhibited by treatment with a compound of Formula II, whereas the equivalent reporter levels of housekeeping genes actin and thioredoxin (TXN) are not inhibited. […] Neuroblastoma cells were transfected 24 hours prior to treatment with a compound of Formula II. After treatment, cells were prepared as described in the materials and methods. Each experiment represents between 6 and 8 biological repetitions.
(§3) Experiments conducted using Firefly luciferase reporter plasmids containing the 5′ untranslated regions (UTRs) of the genes amyloid precursor protein (APP), thioredoxin (TXN) were conducted with reagents and materials described by Bottley et al, 2010. Experiments conducted using Firefly luciferase reporter plasmids containing the 5′ UTRs of the genes EGFR, BACE1 and Actin were conducted with reagents and materials described by Webb, 2012 (http://etheses.nottingham.ac.uk/2724/). […]
as §1

thioredoxin (TXN) 5′UTR = test: 5′UTR firefly luciferase reporter assay, TXN; assay type: cell-based, human; conditions: Neuroblastoma cells; FIG. 3d
Method: as §2, §3, §1

[3] = test system: epidermal growth factor receptor (EGFR) 5′UTR; test: 5′UTR firefly luciferase reporter assay, EGFR; assay type: cell-based, human; conditions: Neuroblastoma cells; FIG. 3d
Method: as §2
After treatment with the compound of Formula II the levels of translation of a reporter construct containing the 5′UTR of amyloid precursor protein, which is processed into toxic amyloid the major constituent of amyloid plaques in Alzheimer's disease, is inhibited relative to equivalent control treatments. […]
as §1

NLGN2 5′UTR = test: NLGN translation reporter assay, neuroligin 2; assay type: cell-based, human; conditions: equivalent treatment; FIG. 5 and FIG. 10
Method: The mechanism of action and level of activity of Formula II are consistent with and comparative to a proven translational inhibitor extracted from a rare coral species (Hippuristanol—a proven inhibitor of eIf4A). In this experiment 1 μM of Hippuristanol and 1.3 μM of Formula I was used
FIG. 10—Compound 46, NLGN Translation reporter assay.
Treatment with the compound of Formula II (and compound 46) (FIG. 5 and FIG. 10) selectively decrease the firefly luciferase signal from a reporter construct containing the NLGN1 5′UTR upstream of a firefly luciferase gene. The translation of luciferase reporters downstream of the NLGN1 5′UTR has been proven to be dependent on the activity of the translation initiation complex eIF4F (Gkogkas et al Nature 2013, 493:371-7)—a complex containing the helicase eIF4A. […]
as §1

breast cancer cells MCF7 = test: Cell proliferation, MCF7; assay type: cell-based; conditions: 96 hours, Formula II only
Method: Growth of MCF7 cell lines were slowed by the treatment with a compound of Formula II. Experiment represents 6 biological repetitions, Error=S.E.M.
Prior to treatment cells were cultured to an appropriate confluency in 96 well tissue culture plates (Fisher). Cells remained either supplemented with fresh media or treated with fresh media containing active or an equivalent volume of DMSO (vehicle control). Where used, Cisplatin™ was diluted to a stock concentration in Dimethylformamide (DMF), then handled as per the manufacturer's instructions. To determine relative cell viability, reagents WST-1 (Roche) or MTT (Sigma) were used as per the manufacturer's instructions and absorbance at 450 nm measured using a Victor plate reader (Perkin Elmer).

## CC/C=C\C/C=C\C/C=C\CCCCCCCC(=O)OC[C@H](COC1OC(CO)C(O)C(O)C1O)OC(=O)CCCCCCC/C=C\C/C=C\C/C=C\CC (stereo partly drawn) [Formula II, 1,2-dioctadecatienyl-3-O-β-D-galactosyl-sn-glycerol]
[1]; after treatment, 20 minutes
  polysome peak, number of ribosomes associated with mRNA: 3 ribosomes
[1]; cells treated for 20 minutes, 10-50% sucrose gradients
  amount of polyribosomes: reduction in the amount of polyribosomes
[2]; Neuroblastoma cells transfected 24 hours prior, FIG. 3d
  firefly luciferase reporter activity, APP 5′UTR: inhibited
[2]; SH-SY5Y cells, semi refined compound, FIG. 3a
  APP 5′UTR luciferase reporter relative to Renilla luciferase reporter: selective inhibition
Actin 5′UTR
  firefly luciferase reporter levels, actin 5′UTR: not inhibited
Thioredoxin (TXN) 5′UTR
  firefly luciferase reporter levels, TXN 5′UTR: not inhibited
[3]
  firefly luciferase reporter activity, EGFR 5′UTR: selectively inhibited; also recorded: significant inhibition (p=0.005)
NLGN2 5′UTR
  signal of NLGN2 5′UTR firefly luciferase reporter: little effect
Breast cancer cells MCF7
  growth of MCF7 cells: slowed
